The experiment concerns the target T1, Recombinant human GR (Homo sapiens, UniProt P04150).
T1 construct: purchased Invitrogen P2816
T1 sequence (P04150 1-777): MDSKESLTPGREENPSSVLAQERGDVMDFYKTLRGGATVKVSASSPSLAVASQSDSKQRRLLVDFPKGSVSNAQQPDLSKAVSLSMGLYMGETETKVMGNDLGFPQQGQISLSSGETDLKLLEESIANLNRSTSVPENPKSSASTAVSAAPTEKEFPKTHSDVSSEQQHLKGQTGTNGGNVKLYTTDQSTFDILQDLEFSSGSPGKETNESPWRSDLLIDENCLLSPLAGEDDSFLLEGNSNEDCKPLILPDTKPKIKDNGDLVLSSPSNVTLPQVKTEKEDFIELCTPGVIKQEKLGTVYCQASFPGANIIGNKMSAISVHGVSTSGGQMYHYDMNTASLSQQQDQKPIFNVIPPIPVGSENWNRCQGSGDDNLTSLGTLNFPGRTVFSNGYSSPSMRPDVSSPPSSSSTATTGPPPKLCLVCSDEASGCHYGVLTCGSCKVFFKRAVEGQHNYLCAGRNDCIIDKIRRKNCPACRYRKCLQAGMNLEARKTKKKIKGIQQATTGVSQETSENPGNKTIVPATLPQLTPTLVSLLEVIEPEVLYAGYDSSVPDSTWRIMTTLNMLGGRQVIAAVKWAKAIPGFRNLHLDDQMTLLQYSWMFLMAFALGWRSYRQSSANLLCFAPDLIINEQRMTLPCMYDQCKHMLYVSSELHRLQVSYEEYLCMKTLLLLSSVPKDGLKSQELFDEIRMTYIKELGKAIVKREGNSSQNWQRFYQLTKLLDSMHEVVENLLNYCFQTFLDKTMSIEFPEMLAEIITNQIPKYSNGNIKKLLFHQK
The experiment is described as follows: GR competitor assay (receptor competitor assay by fluorescence polarization, Invitrogen kit P2816). Conditions: 20 μM test compound solution (10 μL per well plus 5 μL 4×GS1 and 5 μL 4×GR); relative to 2 mM dexamethasone positive control; ratios of 100% or more are indicated by 100%; read-out: GR Binding ratio (%). The procedure:
In order to evaluate a binding activity to GR, a receptor competitor assay was carried out by a fluorescence polarization method. In the assay, a GR competitor assay kit (manufactured by Invitrogen, cat No. P2816) was used, and a procedure was carried out according to the protocol attached to the kit. Hereinafter, the specific method will be described.
GR screening buffer: A buffer containing 10 mM potassium phosphate (pH 7.4), 20 mM sodium molybdate (Na2MoO4), 0.1 mM ethylene diamine tetraacetic acid (EDTA), 5 mM dithiothreitol (DTT), 0.1 mM stabilizing peptide and 2% dimethylsulfoxide was prepared.
4×GS1 solution: Fluormone™ GS1, which is a fluorescent glucocorticoid ligand, was diluted with GR screening buffer, whereby a 4 nM solution was prepared.
4×GR solution: Recombinant human GR was diluted with GR screening buffer, whereby a 16 nM solution was prepared.
After a test compound was dissolved in dimethylsulfoxide, the resulting solution was diluted with GR screening buffer, whereby a 20 μM test compound solution was prepared.
1) The test compound solution was added in an amount of 10 μL into each well of a 384-well plate, and then, 4×GS1 solution and 4×GR solution were added in an amount of 5 μL into each well, respectively.
2) The plate was incubated in a dark place at room temperature for 2 to 4 hours.
3) By using a multimode plate reader, Analyst™ HT (manufactured by LJL Biosystems), fluorescence polarization of each well was measured. As the blank, a well containing GR screening buffer in place of the test compound and 4×GS1 solution was used.
4) The same procedure as that in the above 1) to 3) was carried out except that GR screening buffer was used in place of the test compound solution, and the obtained result was taken as the negative control.
5) The same procedure as that in the above 1) to 3) was carried out except that 2 mM dexamethasone was used in place of the test compound solution, and the obtained result was taken as the positive control.
A GR binding ratio (%) was calculated from the following equation. GR binding ratio(%)=100×[1−(fluorescence polarization of test compound solution−fluorescence polarization of positive control solution)/(fluorescence polarization of negative control solution fluorescence polarization of positive control solution)] (Test Results and Discussion)

As to `COc1cc(OS(C)(=O)=O)ccc1-c1ccc2c(c1COC(=O)c1ccc(C)s1)C(C)=CC(C)(C)N2` [Compound 2-6, 6-(2-Methoxy-4-methylsulfonyloxyphenyl)-5-(5-methylthiophen-2-ylcarbonyloxymethyl)-2,2,4-trimethyl-1,2-dihydroquinoline], the inhibition at 20 µM (stock) came out at 100%.
Take `COc1ccc(C(=O)OCc2c(-c3ccc(OC(=O)c4ccco4)cc3OC)ccc3c2C(C)=CC(C)(C)N3)cc1` [Compound 1-36, 6-[4-(Furan-2-ylcarbonyloxy)-2-methoxyphenyl]-5-(4-methoxybenzoyloxymethyl)-2,2,4-trimethyl-1,2-dihydroquinoline]: the inhibition at 20 µM (stock) stood at 100%.
`COc1cc(OC(=O)Nc2cccnc2)ccc1-c1ccc2c(c1COC(=O)c1ccc(C)s1)C(C)=CC(C)(C)N2` [Compound 4-1, 6-[2-Methoxy-4-(pyridin-3-ylaminocarbonyloxy)phenyl]-5-(5-methylthiophen-2-ylcarbonyloxymethyl)-2,2,4-trim ethyl-1,2-dihydroquinoline]: the inhibition at 20 µM is 100%.
In the case of `COc1cc(OC(=O)c2occc2C)ccc1-c1ccc2c(c1COC(=O)c1ccc(C)s1)C(C)=CC(C)(C)N2` [Compound 1-50, 6-[2-Methoxy-4-(3-methylfuran-2-ylcarbonyloxy)phenyl]-5-(5-methylthiophen-2-ylcarbonyloxymethyl)-2,2,4-trimethyl-1,2-dihydroquinoline], the inhibition at 20 µM (stock) is 90%.
The same measure, in the same setting: for `COc1cc(OS(=O)(=O)CC(C)C)ccc1-c1ccc2c(c1COC(=O)c1ccc(C)s1)C(C)=CC(C)(C)N2` [Compound 2-3] the value was 97%; for `COc1cc(OC(=O)c2ccccc2Cl)ccc1-c1ccc2c(c1COC(=O)c1ccc(C)s1)C(C)=CC(C)(C)N2` [Compound 1-15, 6-[4-(2-Chlorobenzoyloxy)-2-methoxyphenyl]-5-(5-methylthiophen-2-ylcarbonyloxymethyl)-2,2,4-trimethyl-1,2-dihydroquinoline], 91%.
Same read-out and setting: for `COc1cc(OC(=O)c2ccco2)ccc1-c1ccc2c(c1COC(=O)c1ccc(C)s1)C(C)=CC(C)(C)N2` [Compound 1-14, 6-[4-(Furan-2-ylcarbonyloxy)-2-methoxyphenyl]-5-(5-methylthiophen-2-ylcarbonyloxymethyl)-2,2,4-trimethyl-1,2-dihydroquinoline] the value was 96%; for `COc1cc(OC(=O)c2ccccc2)ccc1-c1ccc2c(c1COC(=O)c1ccc(C)s1)C(C)=CC(C)(C)N2` [Compound 1-18, 6-(4-Benzoyloxy-2-methoxyphenyl)-5-(5-methylthiophen-2-ylcarbonyloxymethyl)-2,2,4-trimethyl-1,2-dihydroquinoline], 91%; for `CCCC(=O)Oc1ccc(-c2ccc3c(c2COC(=O)c2ccc(C)s2)C(C)=CC(C)(C)N3)c(OC)c1` [Compound 1-11, 6-(4-Butyryloxy-2-methoxyphenyl)-5-(5-methylthiophen-2-ylcarbonyloxymethyl)-2,2,4-trimethyl-1,2-dihydroquinoline], 100%.
Same read-out and setting: in the case of `COc1cc(OC(=O)c2ccccc2OC(C)=O)ccc1-c1ccc2c(c1COC(=O)c1ccc(C)s1)C(C)=CC(C)(C)N2` [Compound 1-44, 6-[4-(2-Acetoxybenzoyloxy)-2-methoxyphenyl]-5-(5-methylthiophen-2-ylcarbonyloxymethyl)-2,2,4-trimethyl-1,2-dihydroquinoline] it was 96%; in that of `COc1cc(OS(=O)(=O)CCC(F)(F)F)ccc1-c1ccc2c(c1COC(=O)c1ccc(C)s1)C(C)=CC(C)(C)N2` [Compound 2-1, 6-[2-Methoxy-4-(3,3,3-trifluoropropylsulfonyloxy)phenyl]-5-(5-methylthiophen-2-ylcarbonyloxymethyl)-2,2,4-trimethyl-1,2-dihydroquinoline], 97%.
As for `COc1ccc(C(=O)OCc2c(-c3ccc(OC(=O)c4ccccc4Cl)cc3OC)ccc3c2C(C)=CC(C)(C)N3)cc1` [Compound 1-35, 6-[4-(2-Chlorobenzoyloxy)-2-methoxyphenyl]-5-(4-methoxybenzoyloxymethyl)-2,2,4-trimethyl-1,2-dihydroquinoline], the inhibition at 20 µM (stock) came to 100%.
